The source made the active and inactive calls. The rule behind the calls is not given here.
Columns and labels:
[1] = tested on: SW-620; assay: Antitumor activity against human SW620 cells xenografted in athymic mouse model assessed as complete tumor regression at 50 mg/kg measured after 17 to 94 days post tumor implantation by caliper method; format: functional, organism-based; conditions: time 17-94 day
[2] = tested on: SW-620; assay: Antitumor activity against human SW620 cells xenografted in athymic mouse model assessed as tumor free survival at 50 mg/kg measured after 17 to 94 days post tumor implantation by caliper method; format: functional, organism-based; conditions: time 17-94 day
[3] = tested on: SW-620; assay: Induction of cell cycle arrest in human SW620 cells assessed as increase in cdc25A level at 0.1 uM measured after 8 hrs by Western blot analysis; format: functional, cell-based

Row | Structure (SMILES) | Activity [1] | Activity [2] | Activity [3]
1 | CCc1c2c(nc3ccc(OC(=O)N4CCC(N5CCCCC5)CC4)cc13)-c1cc3c(c(=O)n1C2)COC(=O)[C@]3(O)CC | inactive | inactive | –
2 | Nc1ccn([C@@H]2O[C@H](CO)[C@@H](O)C2(F)F)c(=O)n1 | – | – | inactive

— ChEMBL document CHEMBL5678797, “AZD7762, a novel checkpoint kinase inhibitor, drives checkpoint abrogation and potentiates DNA-targeted therapies” (Mol Cancer Ther, 2008)
